Measurements published in PMC3118801, “Tyrosine Kinase Syk Non-Enzymatic Inhibitors and Potential Anti-Allergic Drug-Like Compounds Discovered by Virtual and In Vitro Screening” (PLoS ONE, 2011).
In brackets after ≈: the same amount, converted by molar mass. Where two headings read alike, the source gives them in different places.

What was measured:
RBL-2H3 mast cells [1] = experiment: FcεRI-induced β-hexosaminidase release (mast cell degranulation); format: cell-based, rat
Experimental: The 85 compounds were then tested in a cellular functional assay in order to evaluate their ability to inhibit the liberation of allergic mediators from mast cells. The test is based on the measure of the liberation by exocytosis of the enzyme β-hexosaminidase following the stimulation of the FcεRI, the high affinity receptor for IgE at the surface of mast cells. To this aim, RBL-2H3 mast cells were incubated with each compound for one hour at a final concentration of 20 µM, and β-hexosaminidase release following FcεRI stimulation was measured.
The mouse IgE anti-DNP monoclonal antibody 2682-I was used as hybridoma culture supernatants which contained 1 µg ml^−1 IgE. RBL-2H3 rat basophilic leukaemia cells (ATCC) were maintained as monolayer cultures in RPMI 1640 medium supplemented with 10% fetal bovine serum (Gibco). Measurements of β-hexosaminidase release in RBL-2H3 cells were performed as described, except that after 12–16 h incubation with anti-DNP IgE (0.5 µg ml^−1), cells were incubated for 90 min at 37°C in RPMI medium supplemented with the indicated concentrations of small molecules or DMSO (0.25%). Cells were challenged for 45 min with DNP-BSA (50 ng ml^−1).

Syk [2] = target: T1, Syk (Homo sapiens, UniProt P43405); experiment: Direct binding to Syk by fluorescence spectroscopy
Experimental: Direct binding to Syk of a selection of these 85 compounds was investigated using fluorescence spectroscopy.
For each compound, the ChemBridge ID and the cluster to which it belongs are reported. Direct binding to Syk of some compounds was measured using fluorescence spectroscopy (Kd: dissociation constant). Antibody inhibition percentage reflects the capacity of each compound to inhibit the binding of scFv G4G11 to Syk (final concentrations of 10 µM for small molecules and 100 nM for G4G11). The ability of each compound to inhibit the liberation of allergic mediators from mast cells is measured (**: IC50 values of cell degranulation ≥20 µM). Some physicochemical properties computed with FAFDrugs2, as well as the possible ADMET problems detected by our tool are reported. The computations involved: molecular weight (MW), logP, topological polar surface area (tPSA), H-bond acceptors and donors (HBA, HBD). (PDF) Click here for additional data file.

[3] = Solubility measurement in PBS by HPLC; format: physicochemical; details: aqueous buffer, kinetic from dmso stock, from 10 mM DMSO stock, 25°C
Experimental: 4 µl of a 10 mM DMSO stock solution from of each sample were dissolved in 400 µl of PBS and sonicated for 5 minutes. The samples were centrifuged for 15 minutes at 4000 rpm at 25°C, then 250 µl of each sample were transferred to a 96 well plate. 10 µl of each sample were analyzed by HPLC and the sample concentrations were calculated against a series of caffeine standards ranging from 1 to 100 µM.

[4] = target: T2, Syk (GST:Syk 6-242 fusion protein) (Homo sapiens, UniProt P43405); experiment: ELISA-based Antibody Displacement Assay (binding of scFv G4G11 to Syk); details: 10 µM small molecule, 100 nM G4G11
T2 construct: Recombinant GST:Syk 6-242 fusion protein [34] was immobilized on an ELISA plate; made in house
Experimental: To determine the ability of the compounds to affect the binding of scFv G4G11 to Syk in vitro, we tested them individually in an ELISA-based Antibody Displacement Assay (see Materials and Methods). For this purpose, all 1000 compounds were reconstituted in DMSO, and they were tested at a final concentration of 10 µM in PBS. Compound C-13 was reconstituted in DMF and was used in parallel as a control. The capacity of each compound to inhibit the binding of G4G11 to Syk was evaluated in comparison to the binding of G4G11 to Syk in PBS (final concentration of 100 nM) containing the appropriate concentrations of DMSO or DMF.
Recombinant GST:Syk 6-242 fusion protein [34] was immobilized on an ELISA plate at final concentration of 10 µg ml^−1. For the screening assay, small molecules diluted in PBS at final concentration of 10 µM were added to the wells for one hour at RT, before adding myc-tagged scFv G4G11 at final concentration of 100 nM for one additional hour. The binding of G4G11 to Syk was evaluated by adding HRP-conjugated mAb 9E10 which detects the amino acid sequence EQKLISEEDLN of human c-myc protein located at the C-terminal end of the scFv.

RBL-2H3 mast cells [5] = system: RBL-2H3 mast cells; parameters: method as in PMID 18539317; details: cited from earlier work
anaphylactic shock = system: anaphylactic shock; parameters: method as in PMID 18539317; details: administered orally to mice; cited from earlier work
Syk [6] = target: T1, Syk; parameters: method as in PMID 18539317; details: cited from earlier work
RBL-2H3 mast cells [7] = experiment: Ionomycin-induced degranulation as control of the degranulation machinery (toxic effects); format: cell-based, rat; details: ionomycin treatment, concentrations up to 10 µM
Experimental: To address the possible toxic effects of these compounds on degranulation, we performed a dose-dependent experiment in which FcεRI-dependent degranulation of mast cells was performed in parallel with ionomycin-induced degranulation as a control of the degranulation machinery. […] The ADMET profile of our 10 bioactive compounds was analyzed further. […] In addition, the solubility was measured experimentally and the Lipinski “rule of five” descriptors were computed to probe further the molecules from cluster 2 (Table 1).
Figure 5 Compounds 7501888 and 7722851 impair FcεRI-induced mast cell degranulation. β-hexosaminidase release from mast cells was evaluated in comparison to ionomycin-induced degranulation as a control of the machinery.

[8] = Rattus norvegicus, Table 1, RBL-2H3, FcεRI stimulation, β-hexosaminidase release, read-out: IC50 Cell Degranulation
[9] = Table S1, class symbol, read-out: IC50 Cell Degranulation
[10] = Rattus norvegicus, RBL-2H3, Table S1, class symbol, read-out: IC50 Cell Degranulation

| Antibody Inhibition [4] [%] | IC50 (RBL-2H3 mast cells [1]; [9]) [µM] | Compound | further results |
| --- | --- | --- | --- |
| 43 |  | CCOC(=O)c1ccc(NC(=O)CSc2nnc(-c3ccco3)c(-c3ccco3)n2)cc1 [compound 7495334] | IC50 (RBL-2H3 mast cells [1]; [8]): 10 µM; Kd (Syk [2]; Table 1): 1.6 µM; solubility at 5 min [3]: 35.2 µM (≈ 15.9 µg/mL) |
| 63 | ≥ 20 | COc1ccc(S(=O)(=O)N(CCc2ccccc2)CC(=O)Nc2ccc(C(N)=O)cc2)cc1 [compound 6498669] | Kd (Syk [2]; Table S1): 0.8 µM |
| 42 |  | N#CC1=C(N)Oc2[nH]nc(-c3ccccc3)c2C1c1cccc(OC(=O)c2ccco2)c1 (stereo not shown) [compound 6669449] | IC50 (RBL-2H3 mast cells [1]; [10]): ≥ 20 µM |
| 27 |  | C=CCn1c(CNC(=O)c2cccc(C)c2)nnc1SCC(=O)Nc1cccc(C(=O)OC(C)C)c1 [compound 7783660] | IC50 (RBL-2H3 mast cells [1]; [8]): 10 µM; Kd (Syk [2]; Table 1): 4.8 µM; solubility at 5 min [3]: 12.9 µM (≈ 6.55 µg/mL) |
| 70.5 | ≥ 20 | COc1ccc(OC)c(C2C(=C(O)c3ccc(C)cc3)C(=O)C(=O)N2Cc2cccnc2)c1 (stereo not shown) [compound 6652639] |  |
| 50 | ≥ 20 | COc1ccc(C2C(=C(O)c3ccc(F)cc3)C(=O)C(=O)N2CCN2CCOCC2)cc1OC (stereo not shown) [compound 6654239] |  |
| 58 | ≥ 20 | COc1cc(NS(=O)(=O)c2ccc(NC(C)=O)cc2)c(OC)cc1NC(=O)c1ccccc1 [compound 6853966] |  |
| 79.5 | ≥ 20 | COc1cccc(C2C(=C(O)c3ccc(C)cc3)C(=O)C(=O)N2CCCN2CCOCC2)c1 (stereo not shown) [compound 6882059] | Kd (Syk [2]; Table S1): 9.4 µM |
| 27.5 | ≥ 20 | COc1cccc(C2C(=C(O)c3ccccc3)C(=O)C(=O)N2CCCN2CCOCC2)c1OC (stereo not shown) [compound 6891745] |  |
| 32 | ≥ 20 | Cc1ccc(-c2nnc(Nc3cccc(O)c3)c3ccccc23)cc1S(=O)(=O)NC(C)(C)CO [compound 7238569] |  |
| 50 |  | COc1ccc(C2C(C(=O)c3cccs3)=C(O)C(=O)N2CCN2CCOCC2)cc1OC (stereo not shown) [compound 6677533] | IC50 (RBL-2H3 mast cells [1]; [10]): ≥ 20 µM |
| 25 | ≥ 20 | O=C(Nc1ccccc1C(=O)N1CCCC1)c1ccc(CN2CCc3ccccc3C2)cc1 [compound 7199725] |  |
| 50 | ≥ 20 | COc1ccc(C2C(=C(O)c3ccc(F)cc3)C(=O)C(=O)N2CCN2CCOCC2)c(OC)c1 (stereo not shown) [compound 6670673] |  |
| 67.5 |  | COc1ccccc1C(=O)Nc1ccc(-c2nnc(SCC(=O)c3ccccc3)n2C)cc1 [compound 6282824] | IC50 (RBL-2H3 mast cells [1]; [8]): 5 µM; Kd (Syk [2]; Table 1): 5.6 µM; solubility at 5 min [3]: 4.5 µM (≈ 2.06 µg/mL) |
| 20 |  | COC(=O)c1ccc(NC(=O)CN(c2cccc(OC)c2)S(=O)(=O)c2ccccc2)cc1 [compound 7787455] | IC50 (RBL-2H3 mast cells [1]; [10]): ≥ 20 µM |
| 50 | ≥ 20 | COc1ccc(C2C(=C(O)c3ccc(C)cc3)C(=O)C(=O)N2CCN2CCOCC2)cc1 (stereo not shown) [compound 6670747] |  |
| 81 |  | COC(=O)c1ccccc1-c1ccc(C=C2SC(=S)N(Cc3ccccc3)C2=O)o1 [C-13, methyl 2-{5-[(3-benzyl-4-oxo-2-thioxo-1,3-thiazolidin-5-ylidene)methyl]-2-furyl}benzoate, reference compound] | FcεRI-induced mast cell degranulation in vitro (RBL-2H3 mast cells [5]): inhibits; anaphylactic shock in vivo (anaphylactic shock): inhibits; effects on the enzymatic activity of Syk (Syk [6]): no effects; IC50 (RBL-2H3 mast cells [1]; [8]): 2 µM; Kd (Syk [2]; Table 1): 4 µM |
| 57.5 | ≥ 20 | Cc1ccc(-n2c3c(cc(C(=O)NC4CC(C)(C)NC(C)(C)C4)c2=O)C(=O)CC(C)(C)C3)cc1 [compound 6866968] |  |
| 19 |  | CCOc1ccc(NC(=O)CC2C(=O)N(c3ccc(OC)cc3)C(=S)N2CCN2CCOCC2)cc1 (stereo not shown) [compound 7722914] | IC50 (RBL-2H3 mast cells [1]; Rattus norvegicus, RBL-2H3, Table S1, numeric values, read-out: IC50 Cell Degranulation): 15 µM; Kd (Syk [2]; Table S1): 15.6 µM |
| 35 |  | C=CCn1c(SCC(=O)Nc2cccc(OC)c2)nnc1C(C)NC(=O)c1ccccc1 (stereo not shown) [compound 7752193] | IC50 (RBL-2H3 mast cells [1]; [8]): 10 µM; Kd (Syk [2]; Table 1): 8 µM; solubility at 5 min [3]: 0.3 µM (≈ 0.135 µg/mL) |
| 39.5 |  | CCOC(=O)c1ccc(NC(=O)CC2C(=O)N(c3ccc(Cl)cc3)C(=S)N2Cc2cccnc2)cc1 (stereo not shown) [compound 7722851] | toxic effect on mast cells responses (RBL-2H3 mast cells [7]): no major toxic effect; IC50 (RBL-2H3 mast cells [1]; Rattus norvegicus, RBL-2H3, FcεRI-dependent degranulation of mast cells, read-out: IC50 (degranulation)): 4 µM; Kd (Syk [2]; Table S1): 21.8 µM |
| 40 |  | COc1cc(-c2nnc(SCC(=O)Nc3ccc(Cl)cc3)n2CCc2ccccc2)cc(OC)c1OC [compound 7501888] | toxic effect on mast cells responses (RBL-2H3 mast cells [7]): no major toxic effect; IC50 (RBL-2H3 mast cells [1]; [8]): 4 µM; Kd (Syk [2]; Table 1): 8.2 µM; solubility at 5 min [3]: 6 µM (≈ 3.23 µg/mL) |
